Source: EP3219329A1, “COMBINATIONS OF COPANLISIB” (Bayer Pharma Aktiengesellschaft, priority 2016, dated 2017)

Test system: primary (PDX) human lymphoma model LY2298
Experiment: In vivo B cell lymphoma xenograft model (PDX)
Source text: Anti-tumor activity of cpd. B has been analyzed in murine xenograft models. For that purpose tumor fragments from stock mice inoculated with primary human lymphoma tissue were harvested and used for inoculation into female NOD/SCID mice. Each mouse was inoculated subcutaneously at the right flank with primary (PDX) human lymphoma model LY2298 fragment (P7, 2-4 mm in diameter) for tumor development. The treatment was started when the average tumor size reached about 158 mm^3. Mice were allocated randomly into experimental groups according to their tumor sizes, 10 mice per group. The day was denoted as day 0. Treatments were administrated to tumor-bearing mice from day 1 through day 34. Treatment groups were: vehicle control, cpd. B monotherapy, cpd. A monotherapy and combination of cpd. B and cpd A (Table C). Body weights were determined twice per week. Changes in body weight were depicted as treatment related toxicities (>10% stop treatment, >20% termination). Tumor sizes were measured twice weekly in two dimensions using a caliper, and the volume is expressed in mm^3 using the formula: V = 0.5 a x b^2, where a and b are the long and short diameters of the tumor, respectively. The T/C value is an indicator of tumor response to treatment and commonly used as anti-tumor activity endpoint. T and C are the mean tumor volume of the treated and control groups, respectively. Statistical analysis of difference in tumor volume among the groups was evaluated using one-way ANOVA followed by pairweise comparison procedures (Dunett method). P < 0.05 was considered to be statistically significant.
B in monotherapy and combination therapy with cpd. A during treatment of human LY2298 ABC-DLBCL tumors. Cpd. B has been applied orally upon a dose of 20 mg/kg once daily. Cpd. A was applied intraveneously for 2 days followd by a 5 day treatment break upon a dose of 14 mg/kg. Cpd. […] Cpd. […] TABLE C: Anti-Tumor activity of cpd. B in monotherapy and combination with cpd. A in LY2298 PDX model in NOD/SCID mice.

## COc1c(OCCCN2CCOCC2)ccc2c1N=C(NC(=O)c1cnc(N)nc1)N1CCN=C21.Cl.Cl [cpd. A, 2-amino-N-[7-methoxy-8-(3-morpholin-4-ylpropoxy)-2,3-dihydroimid-azo[1,2-c]quinazolin-5-yl]pyrimidine-5-carboxamide dihydrochloride]
LY2298 PDX in NOD/SCID mice, cpd. B 20 mg/kg QD p.o., cpd. A 14 mg/kg QD 2on/5off i.v., maximum mean loss as percent of starting weight
  Max. body weight loss (%): -5%
LY2298 PDX in NOD/SCID mice, cpd. B 20 mg/kg QD p.o., cpd. A 14 mg/kg QD 2on/5off i.v., mean tumor volume treated/control, * P<0.05 vs. Vehicle
  T/C Volume (at day 20): 0.22*
LY2298 PDX in NOD/SCID mice, cpd. B 20 mg/kg QD p.o., cpd. A 14 mg/kg QD 2on/5off i.v., number of tumors per response class, 10 mice per group
  Response (at termination): 7x PD, 1x SD, 1x PR, 1x CR
Human LY2298 ABC-DLBCL tumors, cpd. B 20 mg/kg once daily orally, cpd. A 14 mg/kg i.v. 2 days on, 5 days break, result in words
  anti-tumor activity: initially a strong anti-tumor activity but after 20 treatment days a clear tumor relapse
